In assay [1] the target is Glycogen synthase kinase-3 beta (Homo sapiens, UniProt P49841). The assay can be described thus: Inhibitory concentration for Glycogen synthase kinase-3 beta was determined in the presence of 10 um ATP (Km 10 uM).
The test system of another assay is HCT-116. The assay can be described thus: Inhibitor concentration to reduce HCT 116 cell line (tumor) growth by 50% over 72 h. It counts as functional. The note with it: Homo sapiens, HCT-116, 72 h.
The target in assay [2] is Cyclin-dependent kinase 2 (Homo sapiens, UniProt P24941). The assay can be described thus: Inhibitory concentration for Cyclin-dependent kinase 2 was determined in the presence of 100 um ATP (Km 50 uM).

Chain of Glycogen synthase kinase-3 beta (P49841 whole entry): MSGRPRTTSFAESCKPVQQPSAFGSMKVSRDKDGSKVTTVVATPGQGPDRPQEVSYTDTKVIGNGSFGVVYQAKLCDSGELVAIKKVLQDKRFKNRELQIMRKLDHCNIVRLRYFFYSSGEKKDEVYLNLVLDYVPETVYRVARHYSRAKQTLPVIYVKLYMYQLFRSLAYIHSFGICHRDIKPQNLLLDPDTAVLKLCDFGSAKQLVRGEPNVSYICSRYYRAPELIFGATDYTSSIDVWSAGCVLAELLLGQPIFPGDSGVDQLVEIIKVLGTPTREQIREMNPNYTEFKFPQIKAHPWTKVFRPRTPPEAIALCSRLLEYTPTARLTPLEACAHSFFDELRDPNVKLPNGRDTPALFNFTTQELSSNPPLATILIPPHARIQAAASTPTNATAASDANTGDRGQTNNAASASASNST

Take `CN(C)S(=O)(=O)c1ccc(Nc2cc(N[C@H]3CC[C@H](N)CC3)nc3c(C4CCCC4)cnn23)cc1`: the half-inhibitory concentration (IC50) in assay [1] came out at 22000 nM.

`CC(C)COc1cc(Nc2ccc(S(C)(=O)=O)cc2)n2ncc(C(C)C)c2n1` gave a GI50 in the assay with HCT-116 of 7800 nM. Further, in assay [1], the half-inhibitory concentration (IC50) stood at 12000 nM.

Regarding `CN(C)S(=O)(=O)c1ccc(Nc2cc(N[C@H]3CC[C@H](N)CC3)nc3c(Br)cnn23)cc1Cl`, in the assay on HCT-116, the GI50 turned out to be 340 nM. In addition, the half-inhibitory concentration (IC50) in assay [1] is 8700 nM.

`CN(C)S(=O)(=O)c1ccc(Nc2cc(N[C@H]3CC[C@H](N)CC3)nc3c(Br)cnn23)cc1` registered a concentration for 50% growth inhibition (GI50) in the assay with HCT-116 of 910 nM. The IC50 in assay [2] is 10 nM; in assay [1], 3400 nM.

Compound `CCN(CC)[C@H]1CC[C@H](Nc2cc(Nc3ccc(S(=O)(=O)N(C)C)cc3)n3ncc(C(C)C)c3n2)CC1` yielded a concentration for 50% growth inhibition (GI50) in the assay on HCT-116 of 16000 nM. For the same compound, in assay [1], the half-maximal inhibitory concentration (IC50) is greater than 50000 nM.

For the compound `CC(C)c1cnn2c(Nc3ccc(S(=O)(=O)N(C)C)cc3)cc(O[C@H]3CC[C@H](N)CC3)nc12`, in the assay with HCT-116, the 50% growth inhibitory concentration (GI50) was found to be 710 nM. In addition, in assay [1], the IC50 came out at 28000 nM.

Consider `N[C@H]1CC[C@H](Nc2cc(Nc3ccc(S(=O)(=O)c4cccs4)cc3)n3ncc(Cl)c3n2)CC1`, for which, in the assay on HCT-116, the GI50 amounted to 120 nM. In addition, the half-inhibitory concentration (IC50) in assay [2] stood at 11 nM.

In the assay on HCT-116, `CCN[C@H]1CC[C@H](Nc2cc(Nc3ccc(S(=O)(=O)N(C)C)cc3)n3ncc(C(C)C)c3n2)CC1` gave a GI50 of 1200 nM. The figures for the IC50 in assay [2] and in assay [1] were 61 nM and greater than 50000 nM, respectively.

`CC(C)c1cnn2c(Nc3ccc(S(=O)(=O)N(C)C)cc3)cc(NC3CCCC(N)C3)nc12` (stereo not drawn): in the assay with HCT-116, the GI50 came out at 3400 nM. Further, the IC50 in assay [2] was 2100 nM; in assay [1], greater than 50000 nM.

`CN(C)S(=O)(=O)c1ccc(Nc2cc(N[C@H]3CC[C@H](N)CC3)nc3c(C#N)cnn23)cc1` gave a GI50 in the assay with HCT-116 of 11000 nM. The IC50 in assay [1] is 460 nM.

Turning to `CC(C)COc1cc(Nc2ccc(S(=O)(=O)N(C)C)cc2)n2ncc(C(C)C)c2n1`, in the assay on HCT-116, halving of growth (GI50) required 7600 nM. The IC50 in assay [2] amounted to 1200 nM; in assay [1], 50000 nM.

On to `CC(C)c1cnn2c(Nc3ccc(S(=O)(=O)N(C)C)cc3)cc(N[C@H]3CC[C@H](N)CC3)nc12`, for which, in the assay on HCT-116, it took 580 nM to inhibit growth by half (GI50). In assay [1], the IC50 turned out to be 40000 nM.

In the assay on HCT-116, `N[C@H]1CC[C@H](Nc2cc(Nc3ccc(S(=O)(=O)c4ccccc4)cc3)n3ncc(Br)c3n2)CC1` showed a 50% growth inhibitory concentration (GI50) of 80 nM. In addition, the IC50 in assay [2] stood at 16 nM; in assay [1], 5300 nM.

In the assay with HCT-116, `CN(C)S(=O)(=O)c1ccc(Nc2cc(N[C@H]3CC[C@H](N)CC3)nc3c(Cl)cnn23)cc1` yielded a GI50 of 2700 nM. For the same compound, the half-maximal inhibitory concentration (IC50) in assay [2] was found to be 8 nM; in assay [1] it was 5100 nM.

The IC50 is the concentration that inhibits the measured activity by half. As a reminder, the GI50 is the concentration that inhibits growth by half. A high value points to less potent growth inhibition.

The record behind these values is ChEMBL document CHEMBL1141971, “Structure-guided design of pyrazolo[1,5-a]pyrimidines as inhibitors of human cyclin-dependent kinase 2” (Bioorg Med Chem Lett, 2005).
